According to US20230174571A1, “METHOD OF TREATING SHIP1-MEDIATED DISEASES USING PELOROL DERIVATIVES” (Zebrapeutics Inc., priority 2020, published 2023):
Numbering of substitutions follows the chain as printed.

Legend:
SHIP1 [1] = biological target: T1, SHIP1 (Homo sapiens, UniProt Q92835); details: scintillation proximity assay, Stenton et al; cited from earlier work
T1 sequence (Q92835 1-1189): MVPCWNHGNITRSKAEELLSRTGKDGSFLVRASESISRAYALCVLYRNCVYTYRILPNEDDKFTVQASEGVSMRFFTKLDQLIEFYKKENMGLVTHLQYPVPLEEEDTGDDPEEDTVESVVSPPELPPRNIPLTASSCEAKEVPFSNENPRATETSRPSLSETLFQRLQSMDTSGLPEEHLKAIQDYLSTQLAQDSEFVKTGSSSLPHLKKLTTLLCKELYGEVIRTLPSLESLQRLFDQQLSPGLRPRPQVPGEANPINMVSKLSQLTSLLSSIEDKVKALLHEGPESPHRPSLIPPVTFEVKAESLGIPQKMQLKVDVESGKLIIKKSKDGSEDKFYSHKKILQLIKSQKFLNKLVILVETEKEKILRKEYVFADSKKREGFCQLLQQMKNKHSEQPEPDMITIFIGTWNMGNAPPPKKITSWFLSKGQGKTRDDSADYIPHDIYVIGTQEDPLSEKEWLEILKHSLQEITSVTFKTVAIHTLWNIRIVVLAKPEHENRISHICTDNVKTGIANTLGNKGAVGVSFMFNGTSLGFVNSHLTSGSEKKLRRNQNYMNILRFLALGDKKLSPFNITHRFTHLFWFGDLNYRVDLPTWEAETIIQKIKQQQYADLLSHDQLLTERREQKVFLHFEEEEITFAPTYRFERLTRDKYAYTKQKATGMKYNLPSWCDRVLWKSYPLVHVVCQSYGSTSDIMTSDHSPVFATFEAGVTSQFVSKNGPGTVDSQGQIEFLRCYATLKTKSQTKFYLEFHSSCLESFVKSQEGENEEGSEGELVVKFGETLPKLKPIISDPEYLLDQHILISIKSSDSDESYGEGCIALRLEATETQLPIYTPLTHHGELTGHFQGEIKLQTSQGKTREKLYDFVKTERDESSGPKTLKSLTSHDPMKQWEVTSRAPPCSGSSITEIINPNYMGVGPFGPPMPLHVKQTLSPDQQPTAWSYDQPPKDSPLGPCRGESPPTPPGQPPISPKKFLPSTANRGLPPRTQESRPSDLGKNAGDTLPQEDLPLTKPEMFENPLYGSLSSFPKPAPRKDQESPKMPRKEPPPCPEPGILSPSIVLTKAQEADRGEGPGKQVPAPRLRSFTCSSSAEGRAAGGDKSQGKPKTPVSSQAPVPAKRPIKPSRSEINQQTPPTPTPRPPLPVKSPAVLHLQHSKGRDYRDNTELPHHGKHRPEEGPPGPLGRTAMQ

PAC2 WT = biological target: T2, PAC2 WT (Mus musculus, UniProt Q9ES52); assay: Biolayer interferometry, wild-type PAC2; format: binding; details: 20 μM analyte; compared to compound I-2 or PI(3,4)P2
T2 construct: PAC1 and PAC2 consists of phosphatase and C2 domain (residues aa 402-861 and aa 402-857 respectively); made in house; host or cells: E. coli BL21 co-transformed with pBirAcm
T2 sequence (Q9ES52 402-857): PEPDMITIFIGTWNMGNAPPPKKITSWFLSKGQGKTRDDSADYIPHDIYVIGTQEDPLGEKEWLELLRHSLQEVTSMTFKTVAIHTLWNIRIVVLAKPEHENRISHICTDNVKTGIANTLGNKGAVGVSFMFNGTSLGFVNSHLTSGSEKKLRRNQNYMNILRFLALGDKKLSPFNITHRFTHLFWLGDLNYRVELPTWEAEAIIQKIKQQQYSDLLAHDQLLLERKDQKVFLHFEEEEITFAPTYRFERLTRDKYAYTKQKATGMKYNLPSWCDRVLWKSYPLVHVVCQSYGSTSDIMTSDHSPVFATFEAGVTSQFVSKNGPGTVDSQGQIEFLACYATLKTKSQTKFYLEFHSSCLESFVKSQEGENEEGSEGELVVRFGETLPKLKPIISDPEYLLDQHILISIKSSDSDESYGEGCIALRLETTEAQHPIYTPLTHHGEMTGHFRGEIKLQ
Method: (§1) Expression of PAC2-Avi tag for Biolayer interferometry. A sequence corresponding to Avi-tag ([…]) was added to the c-terminal end of the PAC2 in LIC-HMT-PAC2 expressing vector via standard restriction digestion and ligation. The LIC-HMT-PAC2-Avi expressing vector was then co-transformed into E. coli BL21 cells with pBirAcm expression vector in 1:1 molar ratio. Overnight culture was inoculated with a 250-fold dilution to start the actual culture. The cells were grown at 37° C. in LB medium (supplemented with 50 μg/mL of kanamycin and 10 μg/mL of chloramphenicol) with shaking speed of 225 rpm. When OD600 reached about 0.6, 5 mM of biotin in bicine buffer pH 8.3 was added to the culture to have final concentration of 125 μM of biotin. The culture was then cooled down to room temperature before the addition of 0.4 mM isopropyl-B-D-1-thiogalactopyranoside (IPTG) to induce the expression of the recombinant protein with Avi-tag. The rest of the method is identical as written in “Expression of PAC2 for crystallography”.
(§2) Biolayer interferometry. […] The association was measured for 600 s at an analyte concentration of 20 μM followed by dissociation for 300 s in the same buffer as the baseline. The raw data was analyzed using the Octet Red Data Analysis software (ver. 8.2). […]

SHIP1 [2] = biological target: T1, SHIP1; details: Stenton et al., 2013b; cited from earlier work
SHIP1 and STAT3 = biological target: T3, SHIP1 and STAT3 (Mus musculus, UniProt Q9ES52); assay: In vitro pull down assay of His6-SHIP1 with STAT3; format: cell-based; details: J17 His6-SHIP1 cells; 100 ng/ml IL10 or IL6, 20 μM compound I-2; 5 minutes
T3 construct: expressed in transfected cells; host or cells: J17 (SHIP1-/- mouse BMDM-derived line), lentiviral transduction
T3 sequence (Q9ES52 1-1191): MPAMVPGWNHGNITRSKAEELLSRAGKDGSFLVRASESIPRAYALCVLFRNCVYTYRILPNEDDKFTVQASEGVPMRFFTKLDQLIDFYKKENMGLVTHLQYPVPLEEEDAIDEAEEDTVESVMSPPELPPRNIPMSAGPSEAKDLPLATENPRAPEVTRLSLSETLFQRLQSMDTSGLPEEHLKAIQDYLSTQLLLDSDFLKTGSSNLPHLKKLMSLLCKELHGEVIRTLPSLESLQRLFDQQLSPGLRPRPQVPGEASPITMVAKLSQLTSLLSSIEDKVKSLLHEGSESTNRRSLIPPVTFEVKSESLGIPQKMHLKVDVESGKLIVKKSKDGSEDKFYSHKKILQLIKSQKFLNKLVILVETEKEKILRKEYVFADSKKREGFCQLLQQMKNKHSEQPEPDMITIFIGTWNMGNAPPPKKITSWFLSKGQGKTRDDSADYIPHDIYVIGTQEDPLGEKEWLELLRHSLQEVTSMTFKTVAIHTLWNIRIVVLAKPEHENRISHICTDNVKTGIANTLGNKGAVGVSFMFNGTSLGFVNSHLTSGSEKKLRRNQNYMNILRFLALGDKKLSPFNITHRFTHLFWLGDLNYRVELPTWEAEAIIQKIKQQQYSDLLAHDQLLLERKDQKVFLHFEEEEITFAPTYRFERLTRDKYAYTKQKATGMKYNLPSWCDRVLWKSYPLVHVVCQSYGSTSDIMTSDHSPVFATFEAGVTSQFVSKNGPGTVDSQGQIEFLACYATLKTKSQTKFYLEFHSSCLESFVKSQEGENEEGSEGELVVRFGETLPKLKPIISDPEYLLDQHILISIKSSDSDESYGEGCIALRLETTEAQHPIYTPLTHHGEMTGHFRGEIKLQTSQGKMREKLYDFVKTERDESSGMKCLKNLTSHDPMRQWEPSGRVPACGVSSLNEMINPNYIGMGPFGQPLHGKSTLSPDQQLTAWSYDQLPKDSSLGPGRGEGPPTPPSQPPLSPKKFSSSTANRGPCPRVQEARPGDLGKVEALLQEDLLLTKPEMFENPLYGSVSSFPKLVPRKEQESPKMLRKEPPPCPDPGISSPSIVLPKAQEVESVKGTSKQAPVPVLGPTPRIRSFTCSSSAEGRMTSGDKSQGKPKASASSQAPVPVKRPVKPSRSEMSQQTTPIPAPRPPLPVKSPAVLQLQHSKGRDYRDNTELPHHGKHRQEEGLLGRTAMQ
Method: In vitro pull down assay. J17 His6-SHIP1 and Y190F cells were seeded at 2×10^6 cells per well in a 6-well plate. After overnight incubation, fresh cell media was added for 30 minutes before stimulation with 100 ng/ml IL10, […] or 20 μM compound I-2 for 5 minutes. Cells were lysed with Protein Solubilization Buffer (PSB, 50 mM Hepes, pH 7.5, […], 10 mM Na Pyrophosphate, 2 mM NaVO4, 2 mM Na Molybdate, 2 mM EDTA) containing 1% octylglucoside, 0.01 M imidazole, and protease inhibitor cocktail (Roche Diagnostics, Laval, QC) for 30 minutes at 4° C. and centrifuged at 10000 rpm for 15 minutes. EDTA resistant Ni beads (Roche Diagnostics, Laval, QC) were added to supernatants and the mixture incubated at 4° C. for 1 hour before spinning down and washing of beads three times with 0.1% octylglucoside wash buffer in PSB. Bead samples and starting material cell lysates were separated on a 7.5% SDS-PAGE gel.
Immunoblotting. Protein lysates were separated on SDS-PAGE gels and transferred onto polyvinylidene fluoride (PVDF) membrane (Millipore, Etobicoke, ON). Membranes were blocked and probed, where appropriate, with the following primary antibodies overnight: SHIP1 (P1C1) (Santa Cruz Biotechnology), pSHIP1 (Y190) (Kinexus), STAT3 (9D8) (ThermoFisher Scientific), pSTAT3 (Y705) (Thermo Fisher Scientific), STAT1 (BD Transduction Laboratories), pSTAT1 (Y701) (Upstate Biotechnology), GAPDH and actin (Sigma-Aldrich). Membranes were developed with either Alexa Fluor® 660 anti-mouse IgG or Alexa Fluor® 680 anti-rabbit IgG antibodies (Thermo Fisher Scientific) and imaged using a LI-COR Odyssey Imager.

[3] = biological target: T4, Clover-SHIP1 and mRuby2-STAT3 (Mus musculus, UniProt Q9ES52); assay: Acceptor photobleaching FRET analysis; format: cell-based; details: J17 SHIP1−/− cells expressing Clover-SHIP1/mRuby2-STAT3; 1 minute; 100 ng/ml IL10, IL6 or 20 μM I-2
T4 construct: expressed in transfected cells; host or cells: J17 (SHIP1-/- mouse macrophage line), lentiviral transduction
Method: Acceptor Photobleaching FRET analysis. J17 cells expressing Clover-SHIP1 and/or mRuby2-STAT3 were seeded at 50×10^4 cells per well in 8-well Ibidi p-Slides (Ibidi GmbH, Martinsried, Germany). After overnight incubation, cells were serum-starved with Mac media containing 1% serum for 3 hours before media replacement with Leibovitz's (L-15) media (Invitrogen, Burlington, ON) supplemented with 1% serum, 10 μM β-mercaptoethanol, 150 μM monothioglycolate and 1 mM L-glutamine for confocal microscopy imaging. Cells were imaged on a Leica SP8X on DMi8 confocal microscope system with a 63×/1.3 Gly HC PL APO CS2 objective using a white light laser line with 488 nm for donor excitement and 555 nm for acceptor excitement. Photobleaching FRET analysis was performed by measuring Clover-SHIP1 donor fluorescence intensity before and after bleaching the acceptor, mRuby2-STAT3, within a field of cells ‘region of interest’ (ROI), at 100% laser intensity for 60 frames. Acceptor photobleaching was performed first in resting cells then at 1 minute (±5 seconds) following ‘mock’ stimulation with L-15 media, or L-15 media containing 100 ng/ml IL10, IL6 or 20 μM compound I-2. Donor and acceptor fluorescence intensity of individual cells within the bleached ROI was quantified before and after bleaching. Percentage FRET efficiency was calculated as % FRETeff=100×(Dpost−Dpre)/Dpost where Dpre and Dpost represent Clover-SHIP1 donor fluorescence intensity before and after bleaching, respectively.

PAC2-K681A = biological target: T5, PAC2-K681A (Mus musculus, UniProt Q9ES52, K681A); assay: Biolayer interferometry, PAC2-K681A; format: binding; details: 20 μM analyte; K681A vs wild-type PAC2
T5 construct: PAC1 and PAC2 consists of phosphatase and C2 domain (residues aa 402-861 and aa 402-857 respectively); made in house; host or cells: E. coli BL21 co-transformed with pBirAcm
T5 sequence (Q9ES52 402-857 K681A): T2 sequence (Q9ES52 402-857) with K280A
Method: as §1, §2

T4 sequence (P42227 whole entry partner, one chain of several): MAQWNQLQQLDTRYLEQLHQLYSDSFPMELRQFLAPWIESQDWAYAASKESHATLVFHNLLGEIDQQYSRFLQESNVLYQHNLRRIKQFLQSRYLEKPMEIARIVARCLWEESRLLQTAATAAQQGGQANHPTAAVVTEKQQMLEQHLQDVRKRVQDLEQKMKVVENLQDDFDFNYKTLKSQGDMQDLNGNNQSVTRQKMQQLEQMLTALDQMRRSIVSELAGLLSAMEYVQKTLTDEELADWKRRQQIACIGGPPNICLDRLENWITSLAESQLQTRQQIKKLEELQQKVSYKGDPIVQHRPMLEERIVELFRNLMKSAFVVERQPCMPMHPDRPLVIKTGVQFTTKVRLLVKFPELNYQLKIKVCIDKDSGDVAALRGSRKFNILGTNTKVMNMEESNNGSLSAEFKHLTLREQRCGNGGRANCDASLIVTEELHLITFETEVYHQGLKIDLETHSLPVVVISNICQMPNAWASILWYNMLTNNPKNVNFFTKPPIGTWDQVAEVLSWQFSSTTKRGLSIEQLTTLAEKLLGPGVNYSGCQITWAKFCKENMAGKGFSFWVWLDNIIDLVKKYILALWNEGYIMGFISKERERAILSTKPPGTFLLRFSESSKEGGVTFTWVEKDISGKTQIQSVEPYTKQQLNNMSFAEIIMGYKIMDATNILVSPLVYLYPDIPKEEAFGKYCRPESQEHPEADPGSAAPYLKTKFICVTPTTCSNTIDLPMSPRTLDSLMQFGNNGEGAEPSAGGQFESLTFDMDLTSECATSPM

C=C1CC[C@H]2[C@H](CN)[C@@H]([C@@]3(C)CC[C@H](O)C[C@@H]3CO)CC[C@]12C [AQX-1125/Rosiptor]
signal of tritiated compound binding to SHIP1 protein (SHIP1 [1]): ~300 cpm
binding to SHIP1 (PAC2 WT) in BLI assay (PAC2 WT): binds very poorly
SHIP1 phosphatase enhancing activity (SHIP1 [2]): marginal

IL6: pro-inflammatory cytokine IL6
association (co-precipitation) of SHIP1 and STAT3 (SHIP1 and STAT3): failed to induce STAT3 association with SHIP1
Clover-mRuby2 FRET signal [3]: not

PI(3,4)P2 [reference compound]
binding to PAC2 with K681A substitution (BLI) (PAC2-K681A): impairs
